In patent EP0454060B1, “3-(Mercaptoalkyl)-quinazoline-2,4(1H,3H)-diones, processes for their preparation, and pharmaceutical compositions” (priority 1990, dated 1991):
Where two headings read alike, the source gives them in different places.

What was measured:
[1] = system: RH (humane Nierenzellen-Permanentzellinie); assay: Cell tolerance, microscopic reading; assay type: cell-based; parameters: key: 0̸: Am 5. Tag der mikroskopischen Ablesung keine morphologischen Veränderungen der Zellen.; ++++: Komplette Veränderungen der Zellschicht in Form von Abrundung, Granulierung und Ablösen der Zellen von der Glaswand.; +++: Analoge Veränderungen bei 3/4 des Zellrasens.; ++: Analoge Veränderungen bei 1/2 des Zellrasens.; +: Analoge Veränderungen bei 1/4 des Zellrasens; details: reading day 5
Excerpt: (§1) 0̸ = Am 5. Tag der mikroskopischen Ablesung keine morphologischen Veränderungen der Zellen. ++++ = Komplette Veränderungen der Zellschicht in Form von Abrundung, Granulierung und Ablösen der Zellen von der Glaswand. +++ = Analoge Veränderungen bei 3/4 des Zellrasens. ++ = Analoge Veränderungen bei 1/2 des Zellrasens. + = Analoge Veränderungen bei 1/4 des Zellrasens.

[2] = system: Human-Fibroblasten (2 Tage alt); assay: Cell tolerance, microscopic reading; assay type: cell-based; parameters: key: 0̸: Am 5. Tag der mikroskopischen Ablesung keine morphologischen Veränderungen der Zellen.; ++++: Komplette Veränderungen der Zellschicht in Form von Abrundung, Granulierung und Ablösen der Zellen von der Glaswand.; +++: Analoge Veränderungen bei 3/4 des Zellrasens.; ++: Analoge Veränderungen bei 1/2 des Zellrasens.; +: Analoge Veränderungen bei 1/4 des Zellrasens; details: HFi, reading day 5
Excerpt: as §1

Influenza A/WSN = assay: One-step replication cycle on chick embryo cells; assay type: cell-based, Influenza-Virus; details: for % Hemmung / Senkung des Virusertrages im Vergleich zur unbehandelten Kontrolle: Influenza A/WSN
[3] = system: Herpes simplex Typ 1 Kupka; assay: One-step replication cycle on permanent human kidney cell line
Vaccinia Lister [4] = assay: as above
Vaccinia Lister [5] = assay type: cell-based, Vaccinia-Virus; details: for % Hemmung / Senkung des Virusertrages im Vergleich zur unbehandelten Kontrolle: Vaccinia Lister
[6] = system: SE-spezifischer rosettenbildender Zellen; assay: Rosette test (SE-specific rosettes); assay type: in vivo, Maus (Inzuchtstamm CBA); details: oral administration
Excerpt: Der Nachweis immunstimulierender Effekte wurde weiterhin an der Maus (Inzuchtstamm CBA) und u. a. mit Hilfe folgender Nachweismethoden geführt: • Plaque-Test zum Nachweis von SE-spezifischen IgM- und IgG-PBZ, • Rosettentest.
Aus den Werten wird deutlich, daß die Verbindungen der allgemeinen Formel I einen gut nachweisbaren Effekt auf die Effektor-T-Lymphozyten-abhängige verzögerte Uberempfindlichkeit haben. Kontaktdermatitis-Werte ab 120 (≙ 20 % Steigerung gegenüber der Kontrolle) bzw. unter 80 werden als Nachweis eines stimulatorischen bzw. suppressorischen Effektes angesehen. Antikörpertiter-Differenzen von >+1 bzw. <-1 verdeutlichen den stimulatorischen bzw. suppressorischen Effekt der Substanzen auf die humorale Immunantwort. 2. Untersuchungen zur immunstimulierenden Wirkung • 2.1 Plaque-Test zum Nachweis von SE-spezifischen IgM- und IgG-PBZ Zur Prüfung immunstimulierender Effekte wurde u. a. auch der Einfluß von Verbindungen der allgemeinen Formel I auf die humorale Immunantwort an Mäusen des Inzuchtstammes CBA und mittels Hämolyse-Plaque-Test (HPT) untersucht. Diese Technik erlaubt die quantitative und getrennte Erfassung IgM- und IgG-Antikörper produzierender Zellen (= Plaque bildende Zellen; PBZ). Die Immunisierung mit Schaferythrozyten (SE) erfolgte am Tag 0, die Substanzapplikation (Tagesdosis 1.10^-5 mol/kg Körpermasse; peroral) an den Tagen -1 bis +3 (zur Erfassung der IgM-PBZ) bzw. an den Tagen +1 bis +5 (zur Erfassung der IgG-PBZ). • 2.2 Ergebnisse: Durch tägliche und über 5 Tage gehende Gabe von 2,0 mg der Verbindung gemäß Beispiel 1 pro kg Körpermasse konnte die Zahl der IgM-PBZ auf einen Durchschnittswert von 352 % im Vergleich zur Kontrolle (100 %) gesteigert werden. Die gleiche Form der Behandlung führte zu einer Erhöhung der IgG-PBZ auf 497 % (Kontrolle: 100 %). In beiden Fällen erwies sich die Differenz zur Kontrolle im t-Test mit p < 0,001 als signifikant. […]

[7] = 125 µmol/l in maintenance medium
[8] = 250 µmol/l in maintenance medium
[9] = 500 µmol/l in maintenance medium
[10] = 1000 µmol/l in maintenance medium
[11] = 62,5 µmol/l in maintenance medium
[12] = Beispielreihe 2, HEZ, 125 µmol/l, mean of three experiments
[13] = Beispielreihe 2, HEZ, 250 µmol/l, mean of three experiments
[14] = Beispielreihe 2, HEZ, 31,25 µmol/l, mean of three experiments
[15] = Beispielreihe 2, HEZ, 31,25 µmol/l, mean of three experiments, 31.25 µM
[16] = Beispielreihe 2, HEZ, 62,5 µmol/l, mean of three experiments
[17] = Beispielreihe 2, HEZ, 62,5 µmol/l, mean of three experiments, 62.5 µM
[18] = Beispielreihe 3, Herpes simplex Typ 1 Kupka, 125 µmol/l, mean of two experiments
[19] = Beispielreihe 3, Herpes simplex Typ 1 Kupka, 250 µmol/l, mean of two experiments
[20] = Beispielreihe 3, 125 µmol/l, mean of two experiments
[21] = Beispielreihe 3, 250 µmol/l, mean of two experiments
[22] = Beispielreihe 5b, Hühnerembryonalfibroblasten, 125 µmol/l
[23] = Beispielreihe 5b, Hühnerembryonalfibroblasten, 250 µmol/l
[24] = Beispielreihe 5b, Hühnerembryonalfibroblasten, 62,5 µmol/l
[25] = Beispielreihe 5b, Hühnerembryonalfibroblasten, 62,5 µmol/l, 62.5 µM
[26] = Beispielreihe 5a, Herpes simplex Typ 1, 125 µmol/l
[27] = Beispielreihe 5a, Herpes simplex Typ 1, 250 µmol/l

O=c1[nH]c2ccccc2c(=O)n1CCS [Beispiel 1, 3-(2-Mercaptoethyl)-chinazolin-2,4(1H,3H)-dion]
Zellverträglichkeit [1, 7]: 0̸ | Zellverträglichkeit [1, 8]: 0̸ | Zellverträglichkeit [1, 9]: ++ | Zellverträglichkeit [1, 10]: +++ | Zellverträglichkeit [1, 11]: 0̸ | Zellverträglichkeit [2, 7]: 0̸ | Zellverträglichkeit [2, 8]: 0̸ | Zellverträglichkeit [2, 9]: 0̸ | Zellverträglichkeit [2, 10]: ++ | Zellverträglichkeit [2, 11]: 0̸ | % Hemmung (Influenza A/WSN; [12]): > 99,99% | Senkung des Virusertrages im Vergleich zur unbehandelten Kontrolle (Influenza A/WSN; [12]): 4,67 log10 TCID50/0,2 ml | % Hemmung (Influenza A/WSN; [13]): > 99,99% | Senkung des Virusertrages im Vergleich zur unbehandelten Kontrolle (Influenza A/WSN; [13]): 6,23 log10 TCID50/0,2 ml | Senkung des Virusertrages im Vergleich zur unbehandelten Kontrolle (Influenza A/WSN; [14]): 2,5 log10 TCID50/0,2 ml | % Hemmung (Influenza A/WSN; [15]): 99,50% | Senkung des Virusertrages im Vergleich zur unbehandelten Kontrolle (Influenza A/WSN; [16]): 4,25 log10 TCID50/0,2 ml | % Hemmung (Influenza A/WSN; [17]): > 99,99% | Therapeutischer Index = Verhältnis von maximal verträglicher und minimal wirksamer Dosis (Influenza A/WSN; für Influenza-Virus, HEZ): 8 | % Hemmung [3, 18]: > 99,99% | Senkung des Virusertrages im Vergleich zur unbehandelten Kontrolle [3, 18]: 5,5 log10 TCID50/0,2 ml | % Hemmung [3, 19]: > 99,99% | Senkung des Virusertrages im Vergleich zur unbehandelten Kontrolle [3, 19]: 6,0 log10 TCID50/0,2 ml | Senkung des Virusertrages im Vergleich zur unbehandelten Kontrolle ([3]; Beispielreihe 3, Herpes simplex Typ 1 Kupka, 62,5 µmol/l, mean of two experiments): 0,75 log10 TCID50/0,2 ml | % Hemmung ([3]; Beispielreihe 3, Herpes simplex Typ 1 Kupka, 62,5 µmol/l, n. s. = nicht signifikant): n. s. | % Hemmung (Vaccinia Lister [4]; [20]): > 99,99% | Senkung des Virusertrages im Vergleich zur unbehandelten Kontrolle (Vaccinia Lister [4]; [20]): > 4,0 log10 TCID50/0,2 ml | % Hemmung (Vaccinia Lister [4]; [21]): > 99,99% | Senkung des Virusertrages im Vergleich zur unbehandelten Kontrolle (Vaccinia Lister [4]; [21]): > 4,0 log10 TCID50/0,2 ml | Senkung des Virusertrages im Vergleich zur unbehandelten Kontrolle (Vaccinia Lister [4]; Beispielreihe 3, 31,25 µmol/l, mean of two experiments): 3,5 log10 TCID50/0,2 ml | % Hemmung (Vaccinia Lister [4]; Beispielreihe 3, 31,25 µmol/l, mean of two experiments, 31.25 µM): > 99,9% | Senkung des Virusertrages im Vergleich zur unbehandelten Kontrolle (Vaccinia Lister [4]; Beispielreihe 3, 62,5 µmol/l, mean of two experiments): 4,0 log10 TCID50/0,2 ml | % Hemmung (Vaccinia Lister [4]; Beispielreihe 3, 62,5 µmol/l, mean of two experiments, 62.5 µM): 99,99% | % Hemmung (Vaccinia Lister [5]; [12]): 99,99% | Senkung des Virusertrages im Vergleich zur unbehandelten Kontrolle (Vaccinia Lister [5]; [12]): 4,0 log10 TCID50/0,2 ml | % Hemmung (Vaccinia Lister [5]; [13]): > 99,99% | Senkung des Virusertrages im Vergleich zur unbehandelten Kontrolle (Vaccinia Lister [5]; [13]): 5,67 log10 TCID50/0,2 ml | Senkung des Virusertrages im Vergleich zur unbehandelten Kontrolle (Vaccinia Lister [5]; [14]): 1,0 log10 TCID50/0,2 ml | % Hemmung (Vaccinia Lister [5]; [15]): 99,0% | Senkung des Virusertrages im Vergleich zur unbehandelten Kontrolle (Vaccinia Lister [5]; [16]): 2,5 log10 TCID50/0,2 ml | % Hemmung (Vaccinia Lister [5]; [17]): 99,68% | Therapeutischer Index = Verhältnis von maximal verträglicher und minimal wirksamer Dosis (Vaccinia Lister [5]; für Vaccinia-Virus, HEZ): 8

COc1cc2[nH]c(=O)n(CCCS)c(=O)c2cc1OC [Beispiel 2, 3-(3-Mercaptoprop-1-yl)-6,7-dimethoxychinazolin-2,4(1H,3H)-dion]
% Hemmung (Influenza A/WSN; [22]): > 99,99% | Senkung des Virusertrages im Vergleich zur unbehandelten Kontrolle (Influenza A/WSN; [22]): 5,0 log10 TCID50/02 ml | % Hemmung (Influenza A/WSN; [23]): > 99,99% | Senkung des Virusertrages im Vergleich zur unbehandelten Kontrolle (Influenza A/WSN; [23]): 5,0 log10 TCID50/02 ml | Senkung des Virusertrages im Vergleich zur unbehandelten Kontrolle (Influenza A/WSN; [24]): 2,0 log10 TCID50/02 ml | % Hemmung (Influenza A/WSN; [25]): 99,0% | % Hemmung [3, 26]: > 99,99% | Senkung des Virusertrages im Vergleich zur unbehandelten Kontrolle [3, 26]: 6,5 log10 TCID50/0,2 ml | % Hemmung [3, 27]: > 99,99% | Senkung des Virusertrages im Vergleich zur unbehandelten Kontrolle [3, 27]: 6,5 log10 TCID50/0,2 ml | Senkung des Virusertrages im Vergleich zur unbehandelten Kontrolle ([3]; Beispielreihe 5a, Herpes simplex Typ 1, 31,25 µmol/l): 3,67 log10 TCID50/0,2 ml | % Hemmung ([3]; Beispielreihe 5a, Herpes simplex Typ 1, 31,25 µmol/l, 31.25 µM): 99,97% | Senkung des Virusertrages im Vergleich zur unbehandelten Kontrolle ([3]; Beispielreihe 5a, Herpes simplex Typ 1, 62,5 µmol/l): 5,0 log10 TCID50/0,2 ml | % Hemmung ([3]; Beispielreihe 5a, Herpes simplex Typ 1, 62,5 µmol/l, 62.5 µM): > 99,99% | SE-spezifischer rosettenbildender Zellen [6]: signifikante Förderung | % Hemmung (Vaccinia Lister [4]; Beispielreihe 5a, 125 µmol/l): > 99,99% | Senkung des Virusertrages im Vergleich zur unbehandelten Kontrolle (Vaccinia Lister [4]; Beispielreihe 5a, 125 µmol/l): 5,0 log10 TCID50/0,2 ml | % Hemmung (Vaccinia Lister [4]; Beispielreihe 5a, 250 µmol/l): > 99,99% | Senkung des Virusertrages im Vergleich zur unbehandelten Kontrolle (Vaccinia Lister [4]; Beispielreihe 5a, 250 µmol/l): 5,0 log10 TCID50/0,2 ml | Senkung des Virusertrages im Vergleich zur unbehandelten Kontrolle (Vaccinia Lister [4]; Beispielreihe 5a, 31,25 µmol/l): 2,84 log10 TCID50/0,2 ml | % Hemmung (Vaccinia Lister [4]; Beispielreihe 5a, 31,25 µmol/l, 31.25 µM): 99,84% | Senkung des Virusertrages im Vergleich zur unbehandelten Kontrolle (Vaccinia Lister [4]; Beispielreihe 5a, 62,5 µmol/l): 5,0 log10 TCID50/0,2 ml | % Hemmung (Vaccinia Lister [4]; Beispielreihe 5a, 62,5 µmol/l, 62.5 µM): > 99,99% | % Hemmung (Vaccinia Lister [5]; [22]): > 99,99% | Senkung des Virusertrages im Vergleich zur unbehandelten Kontrolle (Vaccinia Lister [5]; [22]): 5,0 log10 TCID50/02 ml | % Hemmung (Vaccinia Lister [5]; [23]): > 99,99% | Senkung des Virusertrages im Vergleich zur unbehandelten Kontrolle (Vaccinia Lister [5]; [23]): 5,0 log10 TCID50/02 ml | Senkung des Virusertrages im Vergleich zur unbehandelten Kontrolle (Vaccinia Lister [5]; Beispielreihe 5b, Hühnerembryonalfibroblasten, 31,25 µmol/l): 3,0 log10 TCID50/02 ml | % Hemmung (Vaccinia Lister [5]; Beispielreihe 5b, Hühnerembryonalfibroblasten, 31,25 µmol/l, 31.25 µM): 99,9% | Senkung des Virusertrages im Vergleich zur unbehandelten Kontrolle (Vaccinia Lister [5]; [24]): 3,5 log10 TCID50/02 ml | % Hemmung (Vaccinia Lister [5]; [25]): 99,93%
